Laboratory results reported in publication PMC5218480 (PLoS ONE, 2017).

Test system: MV-4-11 cells
Test: Gene expression microarray analysis (Affymetrix PrimeView) and GSEA
Format: cell-based, human
Parameters: RFU PODN (11730768_x_at) / Fold change /veh PODN (11730768_x_at) / RFU LINC00158 (11744669_a_at) / Fold change /veh LINC00158 (11744669_a_at) / RFU DUSP10 (11751237_a_at) / Fold change /veh DUSP10 (11751237_a_at) / RFU ID3 (11757404_x_at) / Fold change /veh ID3 (11757404_x_at) / RFU PLEKHG5 (11737974_s_at) / Fold change /veh PLEKHG5 (11737974_s_at) / RFU LRRC4B (11730491_at) / Fold change /veh LRRC4B (11730491_at) / RFU GIMAP4 (11747438_a_at) / Fold change /veh GIMAP4 (11747438_a_at) / RFU KRT8 (11758183_x_at) / Fold change /veh KRT8 (11758183_x_at) / RFU CNN1 (11734310_a_at) / Fold change /veh CNN1 (11734310_a_at) / RFU VPS37D (11726825_at) / Fold change /veh VPS37D (11726825_at) / RFU C10orf10 (11716522_x_at) / Fold change /veh C10orf10 (11716522_x_at) / RFU KIR2DL2 /// KIR2DL4 /// KIR2DL5A /// KIR2DL5B /// KIR2DS1 /// KIR2DS2 /// KIR2DS3 /// KIR2DS4 /// KIR3DL3 /// KIR3DL3 /// KIR3DS1 (11738374_at) / Fold change /veh KIR2DL2 /// KIR2DL4 /// KIR2DL5A /// KIR2DL5B /// KIR2DS1 /// KIR2DS2 /// KIR2DS3 /// KIR2DS4 /// KIR3DL3 /// KIR3DL3 /// KIR3DS1 (11738374_at) / RFU C1QL1 (11718748_at) / Fold change /veh C1QL1 (11718748_at) / RFU TMPRSS4 (11747572_a_at) / Fold change /veh TMPRSS4 (11747572_a_at) / RFU HAMP (11756126_x_at) / Fold change /veh HAMP (11756126_x_at) / RFU RNFT2 (11725882_a_at) / Fold change /veh RNFT2 (11725882_a_at) / RFU NR4A2 (11747474_a_at) / Fold change /veh NR4A2 (11747474_a_at) / RFU ABCC12 (11746883_a_at) / Fold change /veh ABCC12 (11746883_a_at) / RFU TMEM136 (11760407_x_at) / Fold change /veh TMEM136 (11760407_x_at) / RFU CLDN22 /// WWC2 (11732394_at) / Fold change /veh CLDN22 /// WWC2 (11732394_at) / RFU HLA-DPB1 (11760878_x_at) / Fold change /veh HLA-DPB1 (11760878_x_at) / RFU SPINT1 (11716480_a_at) / Fold change /veh SPINT1 (11716480_a_at) / RFU GAP43 (11754022_s_at) / Fold change /veh GAP43 (11754022_s_at) / RFU A4GNT (11735810_at) / Fold change /veh A4GNT (11735810_at) / RFU PRB3 (11715151_x_at) / Fold change /veh PRB3 (11715151_x_at) / RFU TUBB4B (11761932_at) / Fold change /veh TUBB4B (11761932_at) / RFU CAPN14 (11732068_a_at) / Fold change /veh CAPN14 (11732068_a_at) / RFU TMCC2 (11721928_a_at) / Fold change /veh TMCC2 (11721928_a_at) / RFU IRGQ (11745062_a_at) / Fold change /veh IRGQ (11745062_a_at) / RFU FAM174B (11720279_a_at) / Fold change /veh FAM174B (11720279_a_at) / RFU TMPRSS4 (11748680_a_at) / Fold change /veh TMPRSS4 (11748680_a_at) / RFU FAM212B (11763350_a_at) / Fold change /veh FAM212B (11763350_a_at) / RFU PLEKHG5 (11743358_a_at) / Fold change /veh PLEKHG5 (11743358_a_at) / RFU ZSCAN30 (11745921_a_at) / Fold change /veh ZSCAN30 (11745921_a_at) / RFU CMKLR1 (11741424_a_at) / Fold change /veh CMKLR1 (11741424_a_at) / RFU LOC101060620 /// MAPK8IP1 (11723275_at) / Fold change /veh LOC101060620 /// MAPK8IP1 (11723275_at) / RFU SPTSSB (11747773_x_at) / Fold change /veh SPTSSB (11747773_x_at) / RFU PRSS12 (11739890_at) / Fold change /veh PRSS12 (11739890_at) / RFU BIN1 (11741810_x_at) / Fold change /veh BIN1 (11741810_x_at) / RFU WNT11 (11732464_a_at) / Fold change /veh WNT11 (11732464_a_at) / RFU C10orf10 (11716521_a_at) / Fold change /veh C10orf10 (11716521_a_at) / RFU C5orf56 (11738089_at) / Fold change /veh C5orf56 (11738089_at) / RFU CYB561 (11721691_x_at) / Fold change /veh CYB561 (11721691_x_at) / RFU ANKRD19P (11752326_a_at) / Fold change /veh ANKRD19P (11752326_a_at) / RFU OR2T12 /// OR2T33 /// OR2T8 (11738714_s_at) / Fold change /veh OR2T12 /// OR2T33 /// OR2T8 (11738714_s_at) / RFU VCAN (11748164_a_at) / Fold change /veh VCAN (11748164_a_at) / RFU JSRP1 (11732532_at) / Fold change /veh JSRP1 (11732532_at) / RFU KRTAP10-11 (11738290_x_at) / Fold change /veh KRTAP10-11 (11738290_x_at) / RFU MYO3A (11730013_a_at) / Fold change /veh MYO3A (11730013_a_at) / RFU EBF3 (11725865_a_at) / Fold change /veh EBF3 (11725865_a_at) / RFU CAMK2N1 (11719241_x_at) / Fold change /veh CAMK2N1 (11719241_x_at) / RFU C5orf56 (11738088_a_at) / Fold change /veh C5orf56 (11738088_a_at) / RFU OLFML3 (11715873_a_at) / Fold change /veh OLFML3 (11715873_a_at) / RFU LOC100653217 /// NTM (11731650_a_at) / Fold change /veh LOC100653217 /// NTM (11731650_a_at) / RFU MAPK11 (11762145_a_at) / Fold change /veh MAPK11 (11762145_a_at) / RFU FIZ1 (11724087_x_at) / Fold change /veh FIZ1 (11724087_x_at) / RFU OASL (11726364_x_at) / Fold change /veh OASL (11726364_x_at) / RFU SOX15 (11748057_x_at) / Fold change /veh SOX15 (11748057_x_at) / RFU CD79A (11719716_a_at) / Fold change /veh CD79A (11719716_a_at) / RFU HIST1H1D (11736915_at) / Fold change /veh HIST1H1D (11736915_at) / RFU CASKIN2 (11723855_a_at) / Fold change /veh CASKIN2 (11723855_a_at) / RFU LOC730098 (11760151_x_at) / Fold change /veh LOC730098 (11760151_x_at) / RFU OR4N2 (11742367_at) / Fold change /veh OR4N2 (11742367_at) / RFU PRRT2 (11749266_a_at) / Fold change /veh PRRT2 (11749266_a_at) / RFU SNX32 (11753110_a_at) / Fold change /veh SNX32 (11753110_a_at) / RFU CDHR5 (11726645_a_at) / Fold change /veh CDHR5 (11726645_a_at) / RFU RCAN1 (11760418_a_at) / Fold change /veh RCAN1 (11760418_a_at) / RFU FAM167A (11723789_a_at) / Fold change /veh FAM167A (11723789_a_at) / RFU FAM26E (11764081_at) / Fold change /veh FAM26E (11764081_at) / RFU ISYNA1 (11749810_s_at) / Fold change /veh ISYNA1 (11749810_s_at) / RFU ACY1 (11761880_at) / Fold change /veh ACY1 (11761880_at) / RFU 11764098_at / Fold change /veh 11764098_at / RFU SAMD14 (11745864_x_at) / Fold change /veh SAMD14 (11745864_x_at) / RFU NPB (11741838_a_at) / Fold change /veh NPB (11741838_a_at) / RFU TMPRSS6 (11731388_a_at) / Fold change /veh TMPRSS6 (11731388_a_at) / RFU KRTAP10-2 (11738614_at) / Fold change /veh KRTAP10-2 (11738614_at) / RFU ARHGAP8 /// PRR5-ARHGAP8 (11727945_x_at) / Fold change /veh ARHGAP8 /// PRR5-ARHGAP8 (11727945_x_at) / RFU KRTAP5-7 /// NADSYN1 (11734609_at) / Fold change /veh KRTAP5-7 /// NADSYN1 (11734609_at) / RFU RASL12 (11751679_a_at) / Fold change /veh RASL12 (11751679_a_at) / RFU CDKN2B (11736163_a_at) / Fold change /veh CDKN2B (11736163_a_at) / RFU PRF1 (11729649_at) / Fold change /veh PRF1 (11729649_at) / RFU, ZNF638 /// ZNF638-IT1 / Fold change vs veh, ZNF638 /// ZNF638-IT1 / RFU, PANK3 / Fold change vs veh, PANK3 / RFU, SH3YL1 / Fold change vs veh, SH3YL1 / RFU, ZEB2 / Fold change vs veh, ZEB2 / RFU, NRIP1 / Fold change vs veh, NRIP1 / RFU, PTTG1IP / Fold change vs veh, PTTG1IP / RFU, CAPN2 / Fold change vs veh, CAPN2 / RFU, MED14 / Fold change vs veh, MED14 / RFU, SNORA58 / Fold change vs veh, SNORA58 / RFU, C1orf63 / Fold change vs veh, C1orf63 / RFU, LRRFIP1 / Fold change vs veh, LRRFIP1 / RFU, NDUFAF7 / Fold change vs veh, NDUFAF7 / RFU, SLC12A2 / Fold change vs veh, SLC12A2 / RFU, IBTK / Fold change vs veh, IBTK / RFU, ESF1 / Fold change vs veh, ESF1 / Fold change vs veh, TMEM50B / RFU, TAOK1 / Fold change vs veh, TAOK1 / RFU, ACBD3 / Fold change vs veh, ACBD3 / RFU, TMA16 / Fold change vs veh, TMA16 / RFU, RWDD3 / Fold change vs veh, RWDD3 / RFU, BCAT1 / Fold change vs veh, BCAT1 / RFU, EDEM3 / Fold change vs veh, EDEM3 / RFU, TMEM33 / Fold change vs veh, TMEM33 / RFU, WDR75 / Fold change vs veh, WDR75 / RFU, AHCTF1 / Fold change vs veh, AHCTF1 / RFU, TFRC / Fold change vs veh, TFRC / RFU, ZDHHC17 / Fold change vs veh, ZDHHC17 / RFU, NOM1 / Fold change vs veh, NOM1 / RFU, ARL8B / Fold change vs veh, ARL8B / RFU, ZBTB11 / Fold change vs veh, ZBTB11 / RFU, TAMM41 / Fold change vs veh, TAMM41 / RFU, KIAA1704 /// LOC100996395 / Fold change vs veh, KIAA1704 /// LOC100996395 / RFU, ING1 / Fold change vs veh, ING1 / RFU, TRMT61B / Fold change vs veh, TRMT61B / RFU, FUBP3 / Fold change vs veh, FUBP3 / RFU, TP53 / Fold change vs veh, TP53 / RFU, TNKS2 / Fold change vs veh, TNKS2 / RFU, ZFP14 / Fold change vs veh, ZFP14 / RFU, ACTR2 / Fold change vs veh, ACTR2 / RFU, PPP3R1 / Fold change vs veh, PPP3R1 / RFU, PIK3R1 / Fold change vs veh, PIK3R1 / RFU, HNRNPA1 / Fold change vs veh, HNRNPA1 / RFU, RNF170 / Fold change vs veh, RNF170 / RFU, ZNF28 / Fold change vs veh, ZNF28 / RFU, RNGTT / Fold change vs veh, RNGTT / RFU, OGT / Fold change vs veh, OGT / RFU, BRD1 / Fold change vs veh, BRD1 / RFU, MARS / Fold change vs veh, MARS / RFU, ZNF655 / Fold change vs veh, ZNF655 / RFU, FAHD1 / Fold change vs veh, FAHD1 / RFU, BDP1 / Fold change vs veh, BDP1 / RFU, LRRCC1 / Fold change vs veh, LRRCC1 / RFU, ARID1A / Fold change vs veh, ARID1A / RFU, ZNF146 / Fold change vs veh, ZNF146 / RFU, ZNF330 / Fold change vs veh, ZNF330 / RFU, GPN3 / Fold change vs veh, GPN3 / RFU, C9orf123 / Fold change vs veh, C9orf123 / RFU, N4BP2L2 / Fold change vs veh, N4BP2L2 / RFU, ARFIP1 / Fold change vs veh, ARFIP1 / RFU, FAM179B / Fold change vs veh, FAM179B / RFU, BCL10 / Fold change vs veh, BCL10 / RFU, UHRF1BP1L / Fold change vs veh, UHRF1BP1L / RFU, BET1 / Fold change vs veh, BET1 / RFU, CNOT2 / Fold change vs veh, CNOT2 / RFU, ZNF268 / Fold change vs veh, ZNF268 / Fold change vs veh, ZNF507 / RFU, DGCR2 / Fold change vs veh, DGCR2 / RFU, WDSUB1 / Fold change vs veh, WDSUB1 / Fold change vs veh, HSP90B1 /// MIR3652 / RFU, ADSS / Fold change vs veh, ADSS / RFU, GK / Fold change vs veh, GK / RFU, ZNF148 / Fold change vs veh, ZNF148 / RFU, TAF9 / Fold change vs veh, TAF9 / RFU, SLC1A5 / Fold change vs veh, SLC1A5 / RFU, SLMO2 / Fold change vs veh, SLMO2 / RFU, ABCC4 / Fold change vs veh, ABCC4 / RFU, LOC101060439 /// RAP1B / Fold change vs veh, LOC101060439 /// RAP1B / RFU, RFX7 / Fold change vs veh, RFX7 / RFU, GTPBP10 / Fold change vs veh, GTPBP10 / RFU, CNEP1R1 / Fold change vs veh, CNEP1R1 / RFU, BIVM-ERCC5 /// ERCC5 / Fold change vs veh, BIVM-ERCC5 /// ERCC5 / RFU, ILF3 / Fold change vs veh, ILF3 / RFU 11762660_at / Fold change /veh 11762660_at / RFU VCAN (11757783_s_at) / Fold change /veh VCAN (11757783_s_at) / RFU DDX43 (11728927_at) / Fold change /veh DDX43 (11728927_at) / RFU KRT8 (11758188_x_at) / Fold change /veh KRT8 (11758188_x_at) / RFU NKD1 (11759106_at) / Fold change /veh NKD1 (11759106_at) / RFU SRD5A1 (11742802_a_at) / Fold change /veh SRD5A1 (11742802_a_at) / RFU TPSAB1 /// TPSB2 (11721975_s_at) / Fold change /veh TPSAB1 /// TPSB2 (11721975_s_at) / RFU GSTM3 (11746129_a_at) / Fold change /veh GSTM3 (11746129_a_at) / RFU IL23R (11737362_x_at) / Fold change /veh IL23R (11737362_x_at) / RFU TMEM51 (11727254_a_at) / Fold change /veh TMEM51 (11727254_a_at) / RFU PIWIL2 (11732686_x_at) / Fold change /veh PIWIL2 (11732686_x_at) / RFU ORM1 (11744905_x_at) / Fold change /veh ORM1 (11744905_x_at) / RFU CCDC152 (11743942_at) / Fold change /veh CCDC152 (11743942_at) / RFU ECM1 (11717891_a_at) / Fold change /veh ECM1 (11717891_a_at) / RFU IL23R (11748794_a_at) / Fold change /veh IL23R (11748794_a_at) / RFU TNFAIP8L3 (11732012_x_at) / Fold change /veh TNFAIP8L3 (11732012_x_at) / RFU MBOAT4 (11741988_at) / Fold change /veh MBOAT4 (11741988_at) / RFU 11764193_at / Fold change /veh 11764193_at / RFU TMEM53 (11763286_at) / Fold change /veh TMEM53 (11763286_at) / RFU MAGEB2 (11727129_at) / Fold change /veh MAGEB2 (11727129_at) / RFU TMEM200A (11744735_a_at) / Fold change /veh TMEM200A (11744735_a_at) / RFU CCDC152 (11751479_a_at) / Fold change /veh CCDC152 (11751479_a_at) / RFU FAM211A (11726209_a_at) / Fold change /veh FAM211A (11726209_a_at) / RFU RGS16 (11746705_a_at) / Fold change /veh RGS16 (11746705_a_at) / RFU VCAN (11755009_s_at) / Fold change /veh VCAN (11755009_s_at) / RFU RHOB (11743442_s_at) / Fold change /veh RHOB (11743442_s_at) / RFU RGS16 (11720943_a_at) / Fold change /veh RGS16 (11720943_a_at) / RFU RGS16 (11720944_at) / Fold change /veh RGS16 (11720944_at) / RFU, VPS4B / Fold change vs veh, VPS4B / RFU, CREB1 / Fold change vs veh, CREB1 / RFU, DNAJC13 / Fold change vs veh, DNAJC13 / RFU, GNAQ / Fold change vs veh, GNAQ / RFU, CDK5R1 / Fold change vs veh, CDK5R1 / RFU, ZRANB3 / Fold change vs veh, ZRANB3 / RFU, CUL4A / Fold change vs veh, CUL4A / RFU, CCNY / Fold change vs veh, CCNY / RFU, UFL1 / Fold change vs veh, UFL1 / RFU, COG3 / Fold change vs veh, COG3 / RFU, DIAPH2 / Fold change vs veh, DIAPH2 / RFU, SKA2 / Fold change vs veh, SKA2 / RFU, AFF3 / Fold change vs veh, AFF3 / RFU, LMF1 / Fold change vs veh, LMF1 / RFU, IPO11 / Fold change vs veh, IPO11 / RFU, DFFB / Fold change vs veh, DFFB / RFU, FOXP1 / Fold change vs veh, FOXP1 / RFU, CARD8 / Fold change vs veh, CARD8 / RFU, STRN3 / Fold change vs veh, STRN3 / RFU, ADK / Fold change vs veh, ADK / RFU, RASSF2 / Fold change vs veh, RASSF2 / RFU, WIPF1 / Fold change vs veh, WIPF1 / RFU, LARP1B / Fold change vs veh, LARP1B / RFU, RASA1 / Fold change vs veh, RASA1 / RFU, RB1 / Fold change vs veh, RB1 / RFU, PPFIA1 / Fold change vs veh, PPFIA1 / RFU, MAT2A / Fold change vs veh, MAT2A / RFU, CCT5 / Fold change vs veh, CCT5 / RFU, WDR92 / Fold change vs veh, WDR92 / RFU, CUX1 / Fold change vs veh, CUX1 / RFU, TTC7A / Fold change vs veh, TTC7A / RFU, TMEM135 / Fold change vs veh, TMEM135 / RFU, DEPTOR / Fold change vs veh, DEPTOR / RFU, CPM / Fold change vs veh, CPM / RFU, DNAJB6 / Fold change vs veh, DNAJB6 / RFU, CACNA2D3 / Fold change vs veh, CACNA2D3 / RFU, DTX4 / Fold change vs veh, DTX4 / RFU, TFCP2 / Fold change vs veh, TFCP2 / RFU, GMCL1 /// GMCL1P1 / Fold change vs veh, GMCL1 /// GMCL1P1 / RFU, AEBP2 / Fold change vs veh, AEBP2 / RFU, SNHG1 /// SNORD22 /// SNORD25 /// SNORD26 /// SNORD27 /// SNORD28 /// SNORD29 /// SNORD31 / Fold change vs veh, SNHG1 /// SNORD22 /// SNORD25 /// SNORD26 /// SNORD27 /// SNORD28 /// SNORD29 /// SNORD31 / Fold change (Aza/veh), C12orf56 (ProbeSet 11735607_a_at) / Fold change (ACY-1035/veh), C12orf56 (ProbeSet 11735607_a_at) / Fold change (Aza/veh), FGFR1OP (ProbeSet 11751329_s_at) / Fold change (ACY-1035/veh), FGFR1OP (ProbeSet 11751329_s_at) / Fold change (Aza/veh), VPS36 (ProbeSet 11739960_a_at) / Fold change (ACY-1035/veh), VPS36 (ProbeSet 11739960_a_at) / RFU SYPL1 (11715823_x_at) / Fold change /veh SYPL1 (11715823_x_at) / RFU IGFBP7 (11715501_s_at) / Fold change /veh IGFBP7 (11715501_s_at) / RFU REEP3 (11722064_at) / Fold change /veh REEP3 (11722064_at) / RFU IGLL1 (11728026_x_at) / Fold change /veh IGLL1 (11728026_x_at): dose or concentration left out as unconfirmed
Conditions: ProbeSet 11725787_a_at; LIST B

In the case of `Nc1ccc(-c2cccs2)cc1NC(=O)c1ccc2c(c1)cc(C1CC1)n2CCN1CCOCC1` [ACY-1035], the “Fold change vs veh, TMA16” value is reported as 0.86.
